Molecular target: T1, Autotaxin enzyme (ATX) (Homo sapiens, UniProt Q13822)
T1 construct: purchased Echelon Biosciences, Inc. E-4000
Test: In vitro ATX assay (enzymatic ATX inhibition, LPC 14:0 substrate, choline oxidase/HRP absorbance readout)
Assay type: biochemical
Conditions: 0.3 mM LPC 14:0, 37° C., 4 hours, absorbance 555 nm
Method in brief: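 Human ATX (10 ng/mL as added) in pH 9.0 Tris buffer with NaCl, MgCl2, CoCl2 and Triton X-100 was preincubated with compound for 15 min at 37 °C. LPC 14:0 (0.3 mM final) was then hydrolysed for 4 h at 37 °C. Released choline was detected by choline oxidase/HRP with 4-AAP/TOOS, read after 15 min RT as absorbance at 555 nm, giving banded IC50 values.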

Question: `COC[C@H]1CCN1C(=O)c1cnc(NCc2cc(OC(F)(F)F)cc(C3CC3)c2)nc1` [Example 103, (R)-(2-((3-cyclopropyl-5-(trifluoromethoxy)benzyl)ami-no)pyrimidin-5-yl)(2-(methoxymethyl)azetidin-1-yl)methanone] was tested. Which IC50 did it give?
Answer: The IC50 was < 100 nM.

Question: `O=C(c1cnc(NCc2cccc(OC(F)(F)F)c2)cn1)N1CCC12COC2` [Example 71, 6-Oxa-1-azaspiro[3.3]heptan-1-yl(5-((3-(trifluoromethoxy)benzyl)|amino)pyrazin-2-yl)methanone] was tested. Which IC50 did it give?
Answer: The IC50 was 100 to 1000 nM.

Question: For `CN(C)CC1CN(C(=O)c2cnc(NCc3cc(OC(F)(F)F)cc(C4CC4)c3)nc2)C1` [Example 100, (2-((3-cyclopropyl-5-(trifluoromethoxy)benzyl)ami-no)pyrimidin-5-yl)(3-((dimethylamino)methyl)azeti-din-1-yl)methanone], which IC50 is on record?
Answer: Its IC50 is 100 to 1000 nM.

Question: How did the IC50 turn out when `O=C(c1cnc(N[C@H]2Cc3ccc(Cl)cc3C2)nc1)N1CCC12COC2` [Example 130, (S)-(2-((5-Chloro-2,3-dihydro-1H-inden-2-yl)amino)pyrimidin-5-yl)(6-oxa-1-azaspiro[3.3]heptan-1-yl)methanone] was run?
Answer: The IC50 was 100 to 1000 nM.

Question: `O=C(c1cnc(NC2Cc3ccc(F)cc3C2)nc1)N1CCC12COC2` (stereo not drawn) [Example 42] was tested. Which IC50 did it give?
Answer: The IC50 was < 100 nM.

Question: With `CC1CC(C)N1C(=O)c1cnc(NCc2cc(OC(F)(F)F)cc(C3CC3)c2)nc1` (single isomer, unassigned) [Example 119, (2-((3-Cyclopropyl-5-(trifluoromethoxy)-benzyl)amino)pyrimidin-5-yl)(2,4-dimethylazetidin-1-yl)methanone] as the molecule, how does the IC50 read?
Answer: The IC50 was ≥ 1000 nM.

Question: With `O=C(c1cnc(NCc2cc(OC(F)(F)F)cc(C3CC3)c2)nc1)N1CCC12CCC2` [Example 79, (2-((3-Cyclopropyl-5-(trifluoromethoxy)benzyl)amino)pyrimidin-5-yl)(1-azaspiro[3.3]heptan-1-yl)methanone] as the molecule, how does the IC50 read?
Answer: Its IC50 is < 100 nM.

Question: `CC(C)c1cc(CNc2ncc(C(=O)N3CCC3C)cn2)cc(OC(F)(F)F)c1` (stereo not drawn) [Example 6] was tested. Which IC50 did it give?
Answer: Its IC50 is < 100 nM.

Question: Which IC50 does the source give for `O=C(c1cnc(N[C@@H]2Cc3ccc(Br)cc3C2)nc1)N1CCC12COC2` [Example 62] here?
Answer: The IC50 was < 100 nM.

Question: `O=C(c1cnc(NCc2cc(OC(F)(F)F)cc(C3CC3)c2)nc1)N1CC(F)C1` [Example 85, (2-((3-cyclopropyl-5-(trifluoromethoxy)benzyl)ami-no)pyrimidin-5-yl)(3-fluoroazetidin-1-yl)-methanone] was tested. Which IC50 did it give?
Answer: Its IC50 is < 100 nM.

Question: How did the IC50 turn out when `CN1CC2(CCN2C(=O)c2cnc(NCc3cc(OC(F)(F)F)cc(C4CC4)c3)nc2)C1` [Example 142, (2-((3-Cyclopropyl-5-(trifluoromethoxy)benzyl)amino)pyrimidin-5-yl)(6-methyl-1,6-diazaspiro[3.3]heptan-1-yl)methanone] was run?
Answer: The IC50 was < 100 nM.

Question: How did the IC50 turn out when `O=C(c1cnc(N[C@@H]2Cc3ccc(Cl)cc3C2)nc1)N1CCC12COC2` [Example 129, (R)-(2-((5-Chloro-2,3-dihydro-1H-inden-2-yl)amino)pyrimidin-5-yl)(6-oxa-1-azaspiro[3.3]heptan-1-yl)methanone] was run?
Answer: Its IC50 is < 100 nM.

Question: How did the IC50 turn out when `CC(C)c1cc(CNc2ncc(C(=O)N3CCC34CN(S(C)(=O)=O)C4)cn2)cc(OC(F)(F)F)c1` [Example 151, (2-((3-Isopropyl-5-(trifluoromethoxy)benzyl)amino)pyrimidin-5-yl) (6-(methylsulfonyl)-1,6-diazaspiro[3.3]heptan-1-yl)methanone] was run?
Answer: Its IC50 is < 100 nM.

Question: How did the IC50 turn out when `CCOc1cc(CNc2ncc(C(=O)N3CCC3C(C)(C)O)cn2)cc(OC(F)(F)F)c1` (stereo not drawn) [Example 66] was run?
Answer: The IC50 was < 100 nM.

Question: For `CC(C)Oc1cc(CNc2ncc(C(=O)N3CCC34COC4)cn2)cc(N2CCC2)c1` [Example 63], which IC50 is on record?
Answer: Its IC50 is 100 to 1000 nM.

Question: Which IC50 does the source give for `O=C(c1cnc(NCc2cc(OC(F)(F)F)cc(C3CC3)c2)nc1)N1CC2(C1)CS(=O)(=O)C2` [Example 106, (2-((3-cyclopropyl-5-(trifluoromethoxy)benzyl)ami-no)pyrimidin-5-yl)(2,2-dioxido-2-thia-6-azaspiro[3.3]heptan-6-yl)methanone] here?
Answer: The IC50 was 100 to 1000 nM.

Question: `O=C(c1cnc(NC2Cc3ccccc3C2)nc1)N1CCC12COC2` [Example 7] was tested. Which IC50 did it give?
Answer: Its IC50 is 100 to 1000 nM.

Question: Which IC50 does the source give for `O=C(c1cnc(NCc2cc(OC(F)(F)F)cc(C3CC3)c2)nc1)N1CC2(CCS2(=O)=O)C1` [Example 102, (2-((3-cyclopropyl-5-(trifluoromethoxy)benzyl)ami-no)pyrimidin-5-yl)(1,1-dioxido-1-thia-6-azaspiro[3.3]heptan-6-y)methanone] here?
Answer: The IC50 was 100 to 1000 nM.

Question: `O=C(c1cnc(NCc2cccc(OC(F)(F)F)c2)nc1)N1CCC12COC2` [Example 2] was tested. Which IC50 did it give?
Answer: Its IC50 is 100 to 1000 nM.

Question: With `COC[C@H]1CCCN1C(=O)c1cnc(NCc2cc(OC(F)(F)F)cc(C3CC3)c2)nc1` [Example 95, (R)-(2-((3-cyclopropyl-5-(trifluoromethxoy)benzyl)ami-no)pyrimidin-5-yl)(2-(methoxymethyl)pyrrolidin-1-yl)methanone] as the molecule, how does the IC50 read?
Answer: The IC50 was 100 to 1000 nM.

Question: With `CC1(O)CN(C(=O)c2cnc(NCc3cc(OC(F)(F)F)cc(C4CC4)c3)nc2)C1` [Example 87, (2-((3-cyclopropyl-5-(trifluoromethoxy)benzyl)ami-no)pyrimidin-5-yl)(3-hydroxy-3-methylazetidin-1-yl)methanone] as the molecule, how does the IC50 read?
Answer: Its IC50 is 100 to 1000 nM.

Question: With `CCOc1cc(CNc2ncc(C(=O)N3CCC34COC4)cn2)cc(OC(C)C)c1` [Example 159, (2-((3-Ethoxy-5-isopropoxybenzyl)amino)pyrimidin-5-yl) (6-oxa-1-azaspiro[3.3]heptan-1-yl)methanone] as the molecule, how does the IC50 read?
Answer: Its IC50 is < 100 nM.

Question: For `CN1CCC2(CC1)CCN2C(=O)c1cnc(NC2Cc3ccc(Cl)cc3C2)nc1` (stereo not drawn) [Example 40], which IC50 is on record?
Answer: Its IC50 is < 100 nM.

Question: How did the IC50 turn out when `O=C(c1cnc(NCc2cc(OC(F)(F)F)cc(C3CC3)c2)nc1)N1CCC12CNC2` [Example 141, (2-((3-Cyclopropyl-5-(trifluoromethoxy)benzyl)amino)pyrimidin-5-yl)(1,6-diazaspiro[3.3]heptan-1-yl)methanone] was run?
Answer: The IC50 was < 100 nM.

Question: Which IC50 does the source give for `O=C(c1cnc(NC2Cc3cc(Br)c(Br)cc3C2)nc1)N1CCC12COC2` [Example 127, (2-((5,6-Dibromo-2,3-dihydro-1H-inden-2-yl)amino)pyrimidin-5-yl)(6-oxa-1-azaspiro[3.3]heptan-1-yl)methanone] here?
Answer: The IC50 was 100 to 1000 nM.

Question: With `O=C(c1cnc(NCc2cc(OC(F)(F)F)cc(C3CC3)c2)nc1)N1CC2(COC2)C1` [Example 82, (2-((3-cyclopropyl-5-(trifluoromethoxy)benzyl)ami-no)pyrimidin-5-yl)(2-oxa-6-azaspiro[3.3]heptan-6-yl)methanone] as the molecule, how does the IC50 read?
Answer: Its IC50 is 100 to 1000 nM.

Question: For `O=C(c1cnc(NC2Cc3ccccc3C2)nc1)N1CCC1` [Example 8], which IC50 is on record?
Answer: Its IC50 is 100 to 1000 nM.

Question: With `CC(C)(C)OC(=O)N1CC2(CCN2C(=O)c2cnc(NCc3cc(OC(F)(F)F)cc(C4CC4)c3)nc2)C1` [Example 92, tert-butyl 1-(2-((3-cyclopropyl-5-(trifluoro-methoxy)benzyl)amino)py-rimidine-5-carbonyl)-1,6-diazaspiro[3.3]heptane-6-carboxylate] as the molecule, how does the IC50 read?
Answer: Its IC50 is < 100 nM.

Question: For `O=C(c1ccc(NC2Cc3ccc(Cl)cc3C2)nc1)N1CCC12COC2` (stereo not drawn) [Example 78, (6-((5-Chloro-2,3-dihydro-1H-inden-2-yl)amino)pyridin-3-yl)(6-oxa-1-azaspiro[3.3]heptan-1-yl)methanone], which IC50 is on record?
Answer: The IC50 was 100 to 1000 nM.

Question: With `O=C(c1cnc(NCc2cc(OCC(F)(F)F)cc(OC(F)(F)F)c2)nc1)N1CCC12COC2` [Example 35] as the molecule, how does the IC50 read?
Answer: The IC50 was < 100 nM.
